Assay results taken from US20110256121A1, “METHODS AND KITS FOR DIAGNOSING OR MONITORING AUTOIMMUNE AND CHRONIC INFLAMMATORY DISEASES” (THE REGENTS OF THE UNIVERSITY OF MICHIGAN, priority 2008, published 2011).
Read-outs that look alike come from different tables or passages of the source.

Key:
[1] = tested on: CD70-dependent B cell help; test: T cell and B cell costimulation assay with PWM, IgG ELISA; type: cell-based, human; conditions: 8 days, P<0.05
Protocol: T cell and B cell costimulation assays. E-rosette-purified T cells were stimulated for 16 hours with PHA and then treated with the indicated chemicals for an additional 72 hours as described above. Where indicated, T cell subsets were isolated by negative selection using magnetic beads (Miltenyi). B cells (1-4×10^5) enriched by negative selection using magnetic beads (Miltenyi) and assessed to be 70-85% pure using PE-conjugated anti-human CD21 (PharMingen), were added to washed, drug-treated autologous T cells, at T cell to B cell ratios of 4:1, 2:1, 1:1, 1:2, and 1:4. Where indicated, 0.625 μg/ml of PWM (Aldrich) was added. The cells were cultured in RPMI 1640/10% FBS/penicillin/streptomycin for 8 days in 96-well roundbottomed plates (Costar) containing a 200 μl total volume (performed in duplicate). Cells were supplemented with 50 μl of medium on day 4. […]
IgG enzyme-linked immunosorbent assays (ELISAs). […] Serial dilutions of purified human IgG (Sigma) were used for quantitation. […] The plates were read at 405 nm using a SpectraMax spectrophotometer (Molecular Devices). […]
Since CD70 participates in T cell-dependent B cell stimulation (See e.g., Kobata et al., Proc Natl Acad Sci USA 92, 11249 (1995)), the effects of DNA methylation inhibitors on CD70-dependent B cell help were examined. […] Eight days later, total IgG in the supernatants was measured by ELISA. […]

[2] = tested on: TT48E; conditions: 6 experiments
[3] = tested on: CD70 promoter; test: Bisulfite sequencing of the CD70 promoter in CD4+ T cells; type: cell-based, human; conditions: anti-CD3 and anti-CD28 stimulated CD4+ T cells vs stimulated untreated controls
Protocol: In other studies, T cells were isolated by negative selection using magnetic beads and instructions provided by the manufacturer (Pan T cell Isolation Kit, Miltenyi), and the CD4+ or CD8+ subset was similarly isolated by magnetic cell sorting. Jurkat cells (E6-1) were cultured as previously described (See, e.g., Cornacchia et al., J Immunol 140:2197 (1998)). Purified human CD4+ T cells were first stimulated with plate bound anti-CD3 and soluble anti-CD28. Briefly, 24 well plates were coated with 300 μl of anti-CD3 (10 μg/ml in PBS—SouthernBiotech) 18 hours 4° C., washed, then 2×10^6 purified T cells were added to the wells in 2 ml RPMI 1640/10% FCS containing 2 μg/ml anti-CD28 (SouthernBiotech). The plates were incubated 37° C. in a humidified atmosphere containing 5% CO2 for 18-24 hours, then treated with 5 μm 5-azaC (Aldrich), 50 μm Pca (Sigma), 20 μm Hyd (Aldrich), 40 μm UO126 (Promega) or 25 μm PD98059 (Promega), and cultured for 3 additional days as described (See, e.g., Oelke et al., Arthritis Rheum 50:1850 (2004)).
Bisulfite sequencing. The putative CD70 promoter was identified using the published CD70 cDNA sequence and Tfsitescan software. Deoxycytosine (dC) and deoxymethylcytosine (d^mC) bases in the gene promoter and 5′ flanking sequences were identified by bisulfite treatment of purified DNA followed by nested PCR amplification of 3 sequential fragments to span the entire region. The primers were designed to avoid CG pairs and to account for the conversion of dC to dU by the bisulfite. EcoRI sites were added to the forward primers, and XbaI to the reverse, to facilitate cloning. The amplified fragments were then cloned into PBS+, and 5 clones sequenced for each fragment. The primers used were: […]
The effect of lupus and DNA methylation inhibitors on a regulatory element in the CD70 promoter was examined. DNA was isolated from the CD4+ T cells of 7 healthy individuals or 6 lupus patients, bisulfite treated, the region from −466-−515, containing 6 CG pairs was amplified by PCR, and 5 fragments sequenced from each individual. The average methylation status of the 6 CG pairs for healthy versus lupus individuals is shown (FIG. 8, NI and Lupus, respectively). CD4+ T cells from 5 individuals were also stimulated with PHA, treated with the irreversible DNA methyltransferase inhibitor 5-azacytidine (5-azaC), and the methylation status of the 6 CG pairs similarly analyzed from the 25 fragments sequenced (FIG. 8, 5-azaC). […] Results are presented as the mean±SEM of the average methylation of the 6 CG pairs, measured from the 10-35 determinations/group.
The effects of the DNA methylation inhibitors on the methylation status of this region were then compared. […] Again, 5 cloned fragments were sequenced from each control, for a total of 35 determinations per CG pair. […] FIG. 14 compares the average methylation for the 10 CG pairs (−515 to −423) in the T cells treated with DNA methylation inhibitors relative to stimulated, untreated controls.

SMILES | IgG secreted by B cells cultured with drug-treated T cells vs untreated T cells [1] | increase of CD70 expression on TT48E ([2]; 1 μM 5-azaC, 3 days, P=0.048) [fold] | methylation of the 10 CG pairs between −515 and −423 of the CD70 promoter [3] | increase of CD70 expression on TT48E ([2]; 40 μM U0126, 3 days, P=0.004) [fold]
Nc1ncn([C@@H]2O[C@H](CO)[C@@H](O)[C@H]2O)c(=O)n1 [5-azaC, 5-azacytidine] | secreted greater amounts of IgG | 1.69±0.33 | hypomethylated compared to controls | 
N#CC(=C(/N)Sc1ccccc1N)/C(C#N)=C(\N)Sc1ccccc1N [U0126] | secreted greater amounts of IgG |  | appears to demethylate | 1.87±0.37
